Patent US20230364079A1, “COMPOUND AS BRAIN-PERMEABLE BTK OR HER2 INHIBITOR, PREPARATION METHOD THEREFOR, AND USE THEREOF” (CHENGDU HYPERWAY PHARMACEUTICALS CO., LTD., priority 2020, published 2023)
Like-named read-outs stand apart in the source and are kept apart here.

Key:
[1] = Liver microsome metabolic stability test, rat; assay type: in vitro ADME; conditions: for half-life: liver microsomes, 0.5 mg/mL protein, read-out: T½
Method: (§1) 1: To the sample wells of T0, T5, T10, T20, T30, T60 and NCF60, 10 µL of the test or reference working solution and 80 µL of microsome working solution (hepatic microsome with a protein concentration of 0.5 mg/mL) were added, and to Blank60 well, only the microsome working solution was added. Then samples of the Blank60, T5, T10, T20, T30 and T60 other than T0 and NCF60 were placed in a 37° C. water bath and pre-incubated for about 10 min.
(§2) 2: To the T0 sample well, 300 µL of stop solution (containing 200 ng/mL tolbutamide and 200 ng/mL labetalol in acetonitrile solution) was added first, followed by 10 µL of NADPH regeneration system working solution.
(§3) 3: After the pre-incubation of Blank60, T5, T10, T20, T30 and T60 incubation plates, 10 µL of NADPH regeneration system working solution was added to each sample well to start the reaction, and 10 µL of 100 mM potassium phosphate buffer was added to the NCF60 sample well.
(§4) 4: After incubation for an appropriate time (such as 5, 10, 20, 30 and 60 min), to each test sample well and control well of the Blank60, T5, T10, T20, T30, T60 and NCF60 plates, 300 µL of stop solution was added to terminate the reaction.
(§5) 5: All sample plates were shaken to mix well and centrifuged at 4000 rpm for 20 min, and 100 µL of the supernatant of the test sample or control sample was taken and diluted with 300 µL of pure water for LC-MS/MS analysis.
(§6) 6: Data analysis: T½ and CLint(mic) (µL/min/mg) values were calculated according to the first-order elimination kinetics. The first-order elimination kinetics equation was: […]

[2] = Pharmacokinetic test, oral, SD rats; assay type: in vivo; conditions: oral 10 mg/kg, plasma; for AUC(0-inf) / Cmax / half-life: rat; for Cmax: read-out: Cmax; for half-life: read-out: T½ (converted)
Method: Each test compound was administered orally (10 mg/kg, 3 rats in each group) to SD rats for pharmacokinetic study. […] Animals were fasted overnight before oral administration, and fed again after 4 h of administration. […] At each collection time point, 3 whole blood samples were collected at a the collection volume of about 0.2-0.3 mL. […] The collected plasma was stored at -20° C. before analysis. 20 µL of plasma sample was added into a 1.6 mL 96-well deep-well plate, added with 200 µL of working internal standard solution (the same volume of vehicle was added to the blank instead of internal standard), vortexed for 1 min, and centrifuged at 5800 rpm for 10 min. 100 µL of the supernatant was added to a 96-well injection plate for LC-MS/MS analysis.

[3] = tested on: DOHH-2-luc tumor cells in the mouse brain; experiment: DOHH-2-Luc intracerebral tumor drug efficacy model test; assay type: in vivo; conditions: for tumor size in the brain by fluorescence image: DOHH-2-Luc intracerebral model, same dose, FIG. 4
Method: Test Example 8: DOHH-2-Luc Intracerebral Tumor Drug Efficacy Model Test
DOHH-2-luc tumor cells were cultured in vitro with RPMI 1640 medium containing 10% fetal bovine serum and 500 ng/mL puromycin in a 37° C., 5% CO2 incubator. […] Tumor cells in logarithmic growth phase were used for inoculation of tumors in vivo.
2. Inoculation of Tumor Cell and Grouping
After the animal was anesthetized by intramuscular injection of Zoletil, it was fixed on the operating table in a prone position. The skin on the top of the head was disinfected with iodine and 75% alcohol respectively, and the skin was cut about 0.5 cm along the midline of the head to expose the coronal and sagittal lines. Being located about 0.5-1.0 mm above the coronal line and about 2 mm to the right of the sagittal line by using a brain locator, a hole was drilled with a 1 mL syringe needle. The micro-injector was inserted vertically to a depth of 3 mm at the location, slowly (about 1 min) injected with 3 × 10^5 DOHH-2-luc tumor cells /2 µL suspension and kept for 1 min. After pulling out the needle, the needle hole was quickly sealed with bone wax, and the wound was sutured with a stapler. About the 7th day after tumor inoculation, the animals were randomly divided into 5 groups according to the body weight of the animals and the optical signal intensity of the tumor site, with 5 animals in each group.
The mice were imaged 1-2 times a week according to their state using the small animal in vivo imaging system IVIS Lumina III (Perkin Elmer). The bioluminescence imaging (BLI, unit: photons/s) signal intensity at the tumor cell inoculation site of mouse was monitored as the main indicator for evaluating tumor growth and drug efficacy. The specific operation is as follows:
The mice were intraperitoneally injected with D-luciferin (15 mg/mL, 5 µL/g according to the body weight of the experimental animal), and then inhaled anesthetized with 1%-2% isoflurane. 10 min after the injection of D-luciferin, the animals were imaged with IVIS Lumina III. The data were analyzed and processed using Living Image software (Perkin Elmer), and the optical signal intensity in ROI (regions of interest) of each animal was calculated.

[4] = tested on: relapsed/refractory central nervous system lymphoma; conditions: patients, cited from earlier work
[5] = Liver microsome metabolic stability test, human; assay type: in vitro ADME; conditions: for half-life: liver microsomes, 0.5 mg/mL protein, read-out: T½
Method: as §1, §2, §3, §4, §5, §6

BTK wild-type kinase = BTK wild-type kinase (Homo sapiens (Human), UniProt Q06187); experiment: BTK kinase activity inhibition test in vitro (Caliper EZ Reader); assay type: biochemical
Chain of BTK wild-type kinase (Q06187 whole entry): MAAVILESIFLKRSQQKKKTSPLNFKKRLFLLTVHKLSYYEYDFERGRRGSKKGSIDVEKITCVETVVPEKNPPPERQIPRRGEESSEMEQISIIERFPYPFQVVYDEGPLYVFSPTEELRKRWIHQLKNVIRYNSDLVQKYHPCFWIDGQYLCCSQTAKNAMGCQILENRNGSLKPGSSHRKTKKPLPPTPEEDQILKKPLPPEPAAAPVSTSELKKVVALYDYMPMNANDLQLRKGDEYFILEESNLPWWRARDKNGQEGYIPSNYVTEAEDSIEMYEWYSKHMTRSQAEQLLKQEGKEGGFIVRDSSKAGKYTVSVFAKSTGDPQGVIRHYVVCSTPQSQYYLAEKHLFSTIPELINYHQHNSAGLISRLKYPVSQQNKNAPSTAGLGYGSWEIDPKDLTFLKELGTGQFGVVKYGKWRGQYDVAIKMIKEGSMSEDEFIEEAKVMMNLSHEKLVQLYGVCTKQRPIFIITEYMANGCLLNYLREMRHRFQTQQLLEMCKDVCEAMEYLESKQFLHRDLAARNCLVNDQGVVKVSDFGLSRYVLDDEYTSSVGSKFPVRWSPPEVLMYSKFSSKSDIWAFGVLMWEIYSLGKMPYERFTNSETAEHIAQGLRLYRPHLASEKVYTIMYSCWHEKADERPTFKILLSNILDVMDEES
Procedure, shortened: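 Compound (10 mM DMSO stock) preincubated with kinase 10 min at room temperature, then ATP plus kinase substrate 2 added, 10 min reaction at room temperature before stop. Substrate conversion read by Caliper mobility shift; inhibition normalised to no-enzyme and no-compound controls, IC50 by variable-slope log(inhibitor) fit.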

[6] = tested on: TMD8 mouse subcutaneous xenograft tumor; experiment: TMD8 pharmacodynamic model test (mouse subcutaneous xenograft tumor); assay type: in vivo; conditions: for inhibitory effect against the tumor compared with ARQ-531 and ibrutinib: same dose of 10 mg/kg, FIG. 1
Method: Test Example 7: TMD8 Pharmacodynamic Model Test
Human diffuse large B-cell lymphoma TMD8 cells were monolayer-cultured in vitro in RPMI1640 medium with 10% fetal bovine serum, 100 U/mL penicillin and 100 µg/mL streptomycin, in a 37° C., 5% CO2 incubator. Routine digestion with trypsin-EDTA was performed twice a week for passaging. When the cell density was 80%-90% and the number reached the requirement, cells were harvested, counted and inoculated. 0.2 ml (1×10^7 cells) of TMD8 cells (added with matrigel at a volume ratio of 1:1) were subcutaneously inoculated on the right back of each mouse. The mice were administered in groups when the average tumor volume reached about 137 mm^3. Tumor diameters were measured twice a week with vernier calipers. The tumor volume was calculated by the formula V = 0.5 a × b^2, where a and b represent the long and short diameters of the tumor, respectively.

[7] = molecular target: BTK mutation-type C481S kinase (Homo sapiens (Human), UniProt Q06187, C481S); experiment: BTK-C481S kinase activity inhibition test in vitro (Caliper EZ Reader); assay type: biochemical
Chain of BTK mutation-type C481S kinase (Q06187 whole entry C481S): as the sequence (Q06187 whole entry) above, with C481S counted along it
Method: In the tests on the activity of inhibiting BTK and HER2 kinase in vitro in the examples of the present disclosure, powder of the compound was dissolved in 100% DMSO to prepare a 10 mM stock solution and stored at-20° C. in the dark. […] In addition, the compounds were subjected to experiments such as liver microsome metabolic stability, rat PK, rat brain penetration rate, and drug efficacy model in the examples of the present disclosure.
Compound powders were dissolved in 100% DMSO to make 10 mM stock solutions, which were stored at -20° C. in the dark.
2: Kinase Reaction Process
(1) Preparation of 1 × Kinase buffer.
(5) After centrifugation at 1000 rpm for 30 seconds, the reaction plate was shaken to mix well and incubated at room temperature for 10 min.
(6) A 5/3-fold final concentration of a mixed solution of ATP and Kinase substrate 2 was prepared with 1 × Kinase buffer.
(7) 15 µL of the mixed solution of ATP and substrate with 5/3-fold final concentration was added to start the reaction.
(8) The 384-well plate was centrifuged at 1000 rpm for 30 seconds, shaken to mix well, and incubated at room temperature for 10 min.
(9) 30 µL of a stop solution was added to stop the kinase reaction, and after centrifugation at 1000 rpm for 30 seconds, the plate was shaken to mix well;
(10) The conversion rate was read with Caliper EZ Reader.
where Conversion%_sample indicates the conversion rate reading of the sample; Conversion%_min is the average reading of the negative control wells, representing the conversion rate reading of the wells without enzyme activity; Conversion%_max is the average reading of the ratio of the positive control wells, representing the conversion rate reading of the wells without compound inhibition.
Dose-Response Curve Fitting
With the log value of the concentration as the X-axis, and the percentage inhibition rate as the Y-axis, the dose-effect curve was fitted using the log(inhibitor) vs. response-Variable slope of the analysis software GraphPad Prism 5, so as to determine the IC50 value of each compound on the enzyme activity.
The calculation formula was: […]

%Remaining (60 min) [1] [%] | half-life [1] [min] | Cl [2] [mL/h/kg] | AUC(0-inf) [2] [ng·h/mL] | Cmax [2] [ng/mL] | half-life [2] [min] | %Remaining (60 min) [5] [%] | half-life [5] [min] | IC50 (BTK wild-type kinase) [nM] | IC50 [7] [nM] | SMILES | tumor size in the brain by fluorescence image [3] | inhibitory effect against the tumor compared with ARQ-531 and ibrutinib [6] | also measured
37.0 | 42.1 | 11395 | 965 | 920 | 19.8 | 66.3 | 106 |  |  | CC#CC(=O)N1CC[C@@H](n2c(=O)n(-c3ccc(Oc4ccccc4)cc3)c3c(N)ncnc32)C1 [Tirabrutinib, reference compound] | large red areas |  | ORR ([4]; 320 mg QD): 60%; PFS ([4]; 320 mg QD): 2.1 months; ORR ([4]; 480 mg QD (fasting condition)): 52.9%; PFS ([4]; 480 mg QD (fasting condition)): 5.8 months; ORR ([4]; 480 mg QD): 100%; PFS ([4]; 480 mg QD): 11.1 months
64.1 | 101 | 48 | 211000 | 25700 | 201 | 77.4 | > 145 | < 5 | < 5 | Nc1nccn2c(C34CCC(CO)(CC3)OC4)nc(-c3ccc(C(=O)Nc4cc(C(F)(F)F)ccn4)cc3)c12 [Compound 118] |  | significantly better inhibitory effect against the tumor | 
61.0 | 88.4 | 1232 | 8120 | 2980 | 69.6 | 100.4 | > 145 | < 5 | < 5 | COc1cccc(Oc2ccc(-c3nc(C4CCC(CO)OC4)n4ccnc(N)c34)cc2)c1C#N (single isomer, unassigned) [Compound 89-P1] |  | significantly better inhibitory effect against the tumor | 
49 | 63.8 | 1045 | 8860 | 1180 | 251 | 61.2 | 95 | 5 to 20 | < 5 | Nc1nccn2c(C34CCC(CO)(CC3)OC4)nc(-c3ccc(C(F)(F)c4ccccc4)cc3)c12 [Compound 125] | very good inhibitory effect against the tumor |  | inhibitory effect against the tumor compared with Tirabrutinib ([3]; DOHH2 tumor model in the mouse brain, same dose of 30 mg/kg (BID), FIG. 3): significantly better inhibitory effect against the tumor; side effects ([3]; mouse, 30 mg/kg (BID), after 21 days of administration): no side effects; inhibitory effect against the tumor compared with Tirabrutinib ([6]; same dose of 20 mg/kg, FIG. 2): significantly better inhibitory effect against the tumor
